Here are results for 5 compounds from patent US4824855A, “1,4-dihydropyridine derivatives” (Sanwa Kagaku Kenkyusho Co., Ltd., priority 1985, dated 1989).

“Also recorded” adds a separate entry of the source. Where two headings read alike, the source gives them in different places.

In one data set the test system is left atrium. Put plainly: Negative inotropic effect on electrically driven left atrium. The data set is classed as cell-based, New Zealand white rabbit. Particulars: Oryctolagus cuniculus; for inhibition at 100 µM: Concentration of the compound 10^-4 mol; for inhibition at 10 µM: Concentration of the compound 10^-5 mol; for IC50: read-out: ID50 (× 10^-4). As to the method:
New Zealand white rabbit was killed by bleeding from the carotid artery and the left atrium was quickly removed. […] The response of preparations was recorded isometically on a recorder. The initial tension applied to the preparation was adjusted to 1 g.

In a further data set the test system is diastolic blood pressure. Put plainly: Effect of compounds on diastolic blood pressure in anesthetized dogs. The data set is classed as in vivo, mongrel dogs. Particulars: 1 μg/kg, i.v. As to the method: (§1) An experiment was carried out by anesthetizing adult male and female mongrel dogs (weight; 10-20 kg) with Nembutal (30 mg/kg i.p.) and artificially respiring (20 ml/kg/stroke, 20 strokes/min) the animals.
(§2) Right vertebral and femoral arteries were exposed and each probe of electro-magnetic flow meter was fitted therein to measure vertebral and femoral arterial blood flow. A cannula was inserted into descending aorta from left femoral artery in order to measure blood pressure by pressure transducer connected to amplifier. Each of test compounds dissolved in 50% ethanol solution (1 μg/kg, i.v.) was administered from the cannula into cephlic vein.

In data set [1] the test system is spiral strip of New Zealand white rabbit aorta. As to the kind of experiment: Ca antagonistic effect (Magnus method, Ca-induced contraction after K depolarization). Format: cell-based. As to the method: Ca antagonistic effect was examined on a spiral strip of New Zealand white rabbit aorta with the Magnus method. The response of preparations was recorded isometically on a recorder. […] The data given in following Table 1 are presented as inhibitory % to concentration without the compound.

The subject of data set [2] is vertebral arterial blood flow. As to the kind of experiment: Effect of compounds on vertebral arterial blood flow in anesthetized dogs. The data set is classed as in vivo, mongrel dogs. The following applies: 1 μg/kg, i.v. As to the method:
as §1, §2

Data set [3] can be described thus: Acute toxicity (oral, Litchfield-Wilcoxon method). Particulars: mouse, in vivo, dd mice, observation for 72 hours. How it is done: Male and female dd mice were used (weight: 18-20 g). Each of compounds to be tested was dissolved in 1% Nikkol and administered directly into stomach by forced oral administration and with use of a metal sonde. LD50 of the compounds were calculated by Litchfield-Wilcoxon method, after observation for 72 hours.

Data set [4] has as its system femoral arterial blood flow. Put plainly: Effect of compounds on femoral arterial blood flow in anesthetized dogs. The data set is classed as in vivo, mongrel dogs. Particulars: 1 μg/kg, i.v. How it is done:
as §1, §2

The conditions of data set [5]: related arts; cited from earlier work.
In data set [6] the test system is vertebral arterial blood flow. As to the kind of experiment: Vertebral and femoral arterial blood flow increasing action (ED50). The following applies: Canis lupus familiaris, iv; amount required to increase the vertebral arterial blood flow by 50%, anesthetized dogs. The data set is classed as in vivo. As to the method: The bloodflow increasing action of the compounds was measured on anesthetized dogs, in a manner similar to that of Pharmaceutical Test Example 3, to obtain the results shown in Table 6 below:
ED50 in the Table indicates the amount of the compound required to increase the vertebral arterial blood flow by 50%.

The test system of data set [7] is spontaneously hypertensive male rats. Put plainly: Blood pressure depressing action (systolic pressure). Format: in vivo. The following applies: 3.0 mg/kg oral. The source says:
The testing or control compound was orally administered to the indicated number (N) of spontaneously hypertensive male rats (15 or more weeks old).

The mark [8] stands for this setting: negative inotropic effect, compound concentrations in the table in mol.
Setting [9] is: compound 10^-7 mol, Concentration of Ca ion 2.5 mM.
Where [10] appears, read: compound 10^-7 mol, Concentration of Ca ion 5.0 mM.
Setting [11] is: compound 10^-8 mol, Concentration of Ca ion 2.5 mM.
Setting [12] is: compound 10^-8 mol, Concentration of Ca ion 5.0 mM.

One may read the LD50 as the dose expected to kill half of the subjects tested. As for `CC1=C(C(=O)OCCN(C)Cc2ccccc2)C(c2cccc([N+](=O)[O-])c2)C(C(=O)OCC2CC2)=C(C)N1` (centres unmarked) [Example 1, 3-cyclopropylmethyl 5-[2-(N-benzyl-N-methylamino)ethyl] 1,4-dihydro-2,6-dimethyl-4-(3-nitrophenyl)pyridine-3,5-dicarboxylate], in the data set on left atrium (read-out: Change (%)), the inhibition at 100 µM came out at 15.7%. For the same compound, in the data set with left atrium (read-out: Change (%)), the inhibition at 10 µM was found to be 7.4%. The IC50 in the data set on left atrium (setting [8]) was determined as 320 µM. In the data set on diastolic blood pressure, the “Change (%) DBP” value is -9 ± 1%. In addition, the “Inhibitory (%)” value in [1] (setting [9]) is reported as 94.7 ± 3.72%; in [1] (setting [10]) it was above 100%; in data set [1] (setting [11]), 76.1 ± 6.62%; in [1] (setting [12]), 81.3 ± 5.46%. Besides, the “Change (%) VABF” value in [2] was 51 ± 13%. For the same compound, in data set [3], the 50% lethal dose (LD50) at 72 h amounted to 211 mg/kg. Further, the “Change (%) FABF” value in data set [4] is 25 ± 8%.
In the case of `CC1=C(C(=O)OCCN(C)Cc2ccc(Cl)cc2)C(c2cccc([N+](=O)[O-])c2)C(C(=O)OCC2CC2)=C(C)N1` (centres unmarked) [Example 3, 3-[2-[N-(4-chlorobenzyl)-N-methylamino]ethyl] 5-cyclopropylmethyl 1,4-dihydro-2,6-dimethyl-4-(3-nitrophenyl)pyridine-3,5-dicarboxylate], the “Change (%) DBP” value in the data set with diastolic blood pressure was -8 ± 1%. For the same compound, the “Change (%) VABF” value in [2] is reported as 56 ± 12%. For the same compound, in data set [4], the “Change (%) FABF” value is recorded as 23 ± 8%.
As for `COc1ccc(CN(C)CCOC(=O)C2=C(C)NC(C)=C(C(=O)OCC3CC3)C2c2cccc([N+](=O)[O-])c2)cc1` (centres unmarked) [Example 4, 3-cyclopropylmethyl 5-[2-[N-(4-methoxybenzyl)-N-methylamino]ethyl] 1,4-dihydro-2,6-dimethyl-4-(3-nitrophenyl)pyridine-3,5-dicarboxylate], the “Change (%) DBP” value in the data set on diastolic blood pressure is reported as -6 ± 1%. For the same compound, in data set [2], the “Change (%) VABF” value amounted to 33 ± 5%. In addition, in [4], the “Change (%) FABF” value is recorded as 19 ± 6%.
Broadly, the ED50 is the dose that gives a 50% effect, or the effect in half of the subjects. A low value points to an effect at a small dose. In the case of `COC(=O)C1=C(C)NC(C)=C(C(=O)OCCN(C)Cc2ccccc2)C1c1cccc([N+](=O)[O-])c1` (centres unmarked) [Nicardipine, 1,4-dihydro-2,6-dimethyl-4-(3-nitrophenyl)-pyridine-3,5-dicarboxylic acid 3-2-(N-benzyl-N-methylamino)ethyl 5-methyl ester], the inhibition at 100 µM in the data set on left atrium (read-out: Change (%)) worked out at 25.6%. For the same compound, the inhibition at 10 µM in the data set on left atrium (read-out: Change (%)) turned out to be 13.5%. Further, the inhibition at 1 µM in the data set with left atrium (Concentration of the compound 10^-6 mol, read-out: Change (%)) was 3.4%. In addition, in the data set with left atrium (setting [8]), the IC50 came to 34 µM. For the same compound, the “Change (%) DBP” value in the data set with diastolic blood pressure was -10 ± 1%. Also, the “effect on cerebral blood flow” value in data set [5] is “high cerebral blood flow increasing action”. The compound further gave an ED50 in data set [6] of 0.0042 mg/kg. Also, the “Inhibitory (%)” value was found to be 90.9 ± 12.06% in data set [1] (setting [9]), 83.2 ± 15.93% in [1] (setting [10]), 26.5 ± 18.40% in data set [1] (setting [11]) and 16.3 ± 21.28% in data set [1] (setting [12]). In [2], the “Change (%) VABF” value was determined as 32 ± 7%. For the same compound, in data set [3], the LD50 at 72 h was 305 mg/kg. Further, the “Change (%) FABF” value in data set [4] was determined as 14 ± 5%. Further, the “Systolic pressure (change from pre-value)” value in [7] (1 hr) was -10.0 ± 2.28 mm Hg; in [7] (2 hr) it was -5.7 ± 1.61 mm Hg; in data set [7] (4 hr), -3.0 ± 2.01 mm Hg; in [7] (6 hr), -1.0 ± 1.50 mm Hg; in [7] (24 hr), -4.2 ± 1.88 mm Hg.
With `COC(=O)C1=C(C)NC(C)=C(C(=O)OC)C1c1ccccc1[N+](=O)[O-]` [Nifedipine, dimethyl ester of 1,4-dihydro-2,6-dimethyl-4-(2-nitropheny)pyridine-3,5-dicarboxylic acid], the IC50 with left atrium is 120 µM. Further, the inhibition at 100 µM with left atrium (read-out: Change (%)) stood at 19%. Further, the inhibition at 10 µM with left atrium (read-out: Change (%)) was determined as 9.5%. Besides, the “effect on cerebral blood flow” value in data set [5] is recorded as “tendency of causing a relative decrease on cerebral blood flow”. Besides, in data set [5], the pharmaceutical activities entry is listed as “coronary vasodilating action, blood pressure depressing action; also recorded: powerful depressing action”. The “Inhibitory (%)” value in data set [1] (setting [9]) was above 100%; in data set [1] (setting [10]) it was above 100%; in data set [1] (setting [11]), 63.5 ± 7.33%; in [1] (setting [12]), 62.3 ± 7.91%. In addition, the “Systolic pressure (change from pre-value)” value in [7] (1 hr) is given as -19.3 ± 4.41 mm Hg; in [7] (2 hr) it was -10.6 ± 3.14 mm Hg; in data set [7] (4 hr), -4.3 ± 2.70 mm Hg; in data set [7] (6 hr), -0.1 ± 1.56 mm Hg; in data set [7] (24 hr), -1.1 ± 1.06 mm Hg.
